Data as given in PMC12775434, “Ultra-large virtual screening unveils potent agonists of the neuromodulatory orphan receptor GPR139” (Nature Communications, 2025).
Where “and” joins values, the source holds several entries; their conditions need not be identical. Identical values can stand only once.

How the values were obtained:
Type in all cases: cell-based
[1] = biological target: T1, GPR139 (Homo sapiens, UniProt Q6DWJ6); assay: Ca2+ mobilization assay, antagonist mode (EC80 800 nM Lundbeck Cmp 1a after 20 min preincubation), GPR139-CHOk1; details: individual replicates (Supplementary Figure 4)
T1 sequence (Q6DWJ6 1-353): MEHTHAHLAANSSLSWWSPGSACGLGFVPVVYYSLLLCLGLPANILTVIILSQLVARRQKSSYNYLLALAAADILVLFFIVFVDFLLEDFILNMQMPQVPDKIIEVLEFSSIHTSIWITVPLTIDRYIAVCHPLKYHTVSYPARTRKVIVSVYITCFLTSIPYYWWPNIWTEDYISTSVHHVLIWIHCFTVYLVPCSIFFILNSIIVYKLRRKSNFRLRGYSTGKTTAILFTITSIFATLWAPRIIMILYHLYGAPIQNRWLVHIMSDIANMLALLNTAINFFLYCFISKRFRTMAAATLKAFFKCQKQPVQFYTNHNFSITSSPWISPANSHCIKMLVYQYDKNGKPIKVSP
Outline: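 Antagonist mode: 800 nM (EC80) reference agonist Lundbeck Cmp 1a added following 20 min pre-incubation with 10 µM compound. GPR139-CHOk1 cells, Fluo-4 dye, probenecid-containing HEPES buffer pH 7.4; intracellular Ca2+ measured at 37 °C (ex 485, em 525 nm).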

[2] = biological target: T1, GPR139; assay: Ca2+ mobilization assay, agonist mode, stable GPR139-CHOk1 cell line; details: for EC50 / Emax: Supplementary Table 2, mean ± SEM; for EC50: read-out: pEC50 Ca2+ (converted); for Emax: normalized to Lundbeck Cmp 1a, read-out: Emax (%) Ca2+; for change in potency with larger substituents on the thiophene ring: Ca2+ mobilization
Outline: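 Agonist activity of compounds is assessed in stably transfected CHO-K1 cells using the calcium dye Fluo-4 at 37 °C in HEPES-buffered HBSS (pH 7.4). Efficacy is expressed relative to the reference agonist Lundbeck Cmp 1a, set as 100%.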

[3] = biological target: T2, human muscarinic acetylcholine M1 receptor (M1R) (Homo sapiens, UniProt P11229); assay: Ca2+ mobilization counter-screen in M1R-CHOk1 cells; details: individual replicates (Supplementary Figure 5);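 further: 10 µM test compound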
T2 sequence (P11229 1-460): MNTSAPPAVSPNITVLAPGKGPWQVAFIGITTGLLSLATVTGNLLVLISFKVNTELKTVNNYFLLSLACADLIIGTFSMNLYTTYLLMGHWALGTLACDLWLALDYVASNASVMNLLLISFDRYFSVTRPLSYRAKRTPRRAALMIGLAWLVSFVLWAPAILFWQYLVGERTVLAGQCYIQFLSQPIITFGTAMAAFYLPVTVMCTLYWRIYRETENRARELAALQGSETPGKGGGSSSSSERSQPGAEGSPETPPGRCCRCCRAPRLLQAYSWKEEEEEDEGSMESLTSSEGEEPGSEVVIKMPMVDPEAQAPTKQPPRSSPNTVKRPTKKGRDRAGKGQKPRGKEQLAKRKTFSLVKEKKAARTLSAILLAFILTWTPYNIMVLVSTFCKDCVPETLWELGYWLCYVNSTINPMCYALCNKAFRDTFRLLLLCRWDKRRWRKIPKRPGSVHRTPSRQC
Outline: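 Counter-screen used CHO-K1 cells stably carrying human M1R, Fluo-4 AM-loaded (2 µM, 1 h, 37 °C). Calcium signal measured at 485/525 nm after compound addition.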

[4] = Agonist mode, individual replicates (Supplementary Figure 4)
[5] = log [Compound] M = -4.5, individual replicate columns
[6] = log [Compound] M = -5.0, individual replicate columns
[7] = log [Compound] M = -5.5, individual replicate columns
[8] = log [Compound] M = -6.0, individual replicate columns
[9] = log [Compound] M = -6.5, individual replicate columns
[10] = log [Compound] M = -7.0, individual replicate columns
[11] = log [Compound] M = -7.5, individual replicate columns
[12] = log [Compound] M = -8.0, individual replicate columns
[13] = log [Compound] M = -8.5, individual replicate columns
[14] = log [Compound] M = -9.0, individual replicate columns

Question: Which results are given for COc1csc(-c2nc(CC(=O)NC(C)c3ccccc3)no2)c1 (centres unmarked) [Compound 1.39, COC1=CSC(=C1)C2=NC(CC(=O)NC(C)C=3C=CC=CC3)=NO2]?
Answer: Ca2+ signal (% of Cmp 1a) [1]: -8 % of Cmp 1a and 12 % of Cmp 1a and -11 % of Cmp 1a; Ca2+ signal (% of Cmp 1a) [2, 4]: 80 % of Cmp 1a and 95 % of Cmp 1a and 86 % of Cmp 1a; EC50 [2]: 316 nM; Emax [2]: 123 ± 14%; Ca2+ signal (% of Cmp 1a) [2, 5]: 120 % of Cmp 1a and 97 % of Cmp 1a and 133 % of Cmp 1a; Ca2+ signal (% of Cmp 1a) [2, 6]: 130 % of Cmp 1a and 91 % of Cmp 1a and 148 % of Cmp 1a; Ca2+ signal (% of Cmp 1a) [2, 7]: 122 % of Cmp 1a and 94 % of Cmp 1a and 152 % of Cmp 1a; Ca2+ signal (% of Cmp 1a) [2, 8]: 98 % of Cmp 1a and 72 % of Cmp 1a and 114 % of Cmp 1a; Ca2+ signal (% of Cmp 1a) [2, 9]: 73 % of Cmp 1a and 44 % of Cmp 1a and 79 % of Cmp 1a; Ca2+ signal (% of Cmp 1a) [2, 10]: 38 % of Cmp 1a and 21 % of Cmp 1a and 34 % of Cmp 1a; Ca2+ signal (% of Cmp 1a) [2, 11]: 20 % of Cmp 1a and 15 % of Cmp 1a and 2 % of Cmp 1a; Ca2+ signal (% of Cmp 1a) [2, 12]: 16 % of Cmp 1a and 17 % of Cmp 1a and -3.33 % of Cmp 1a; Ca2+ signal (% of Cmp 1a) [2, 13]: 7 % of Cmp 1a and 12 % of Cmp 1a and -8 % of Cmp 1a; Ca2+ signal (% of Cmp 1a) [2, 14]: 15 % of Cmp 1a and 20 % of Cmp 1a and 0.667 % of Cmp 1a; Ca2+ signal (% of Carbachol) [3]: -14 % of Carbachol and -1 % of Carbachol and -5.33 % of Carbachol

Question: Which “Ca2+ signal (% of Cmp 1a)” value [1] does the source give for Cc1cnc2ccc(-c3nc(CC(=O)NC(C)c4ccccc4)no3)cn12 (centres unmarked) [Compound 1.40, CC(NC(=O)CC1=NOC(=N1)C=2C=CC3=NC=C(C)N3C2)C=4C=CC=CC4] here?
Answer: 23 % of Cmp 1a and 31 % of Cmp 1a and 12 % of Cmp 1a

Question: And the “Ca2+ signal (% of Cmp 1a)” value [2, 4]?
Answer: 51 % of Cmp 1a and 56 % of Cmp 1a

Question: And the “change in potency with larger substituents on the thiophene ring” value [2]?
Answer: three-fold reduction to a complete loss of activity

Question: And the EC50 [2]?
Answer: 3160 nM

Question: What about the Emax [2] of the same compound?
Answer: 86 ± 7%

Question: And the “Ca2+ signal (% of Cmp 1a)” value [2, 5]?
Answer: 93 % of Cmp 1a and 71 % of Cmp 1a and 89 % of Cmp 1a

Question: And the “Ca2+ signal (% of Cmp 1a)” value [2, 6]?
Answer: 80 % of Cmp 1a and 64 % of Cmp 1a and 78 % of Cmp 1a

Question: What about the “Ca2+ signal (% of Cmp 1a)” value [2, 7] of the same compound?
Answer: 57 % of Cmp 1a and 35 % of Cmp 1a and 53 % of Cmp 1a

Question: What about the “Ca2+ signal (% of Cmp 1a)” value [2, 8] of the same compound?
Answer: 32 % of Cmp 1a and 13 % of Cmp 1a and 17 % of Cmp 1a

Question: What about the “Ca2+ signal (% of Cmp 1a)” value [2, 9] of the same compound?
Answer: 17 % of Cmp 1a and -10 % of Cmp 1a and -16 % of Cmp 1a

Question: And the “Ca2+ signal (% of Cmp 1a)” value [2, 10]?
Answer: 21 % of Cmp 1a and -2.33 % of Cmp 1a and -20 % of Cmp 1a

Question: And the “Ca2+ signal (% of Cmp 1a)” value [2, 11]?
Answer: 0 % of Cmp 1a and 1.33 % of Cmp 1a and 22 % of Cmp 1a

Question: What about the “Ca2+ signal (% of Cmp 1a)” value [2, 12] of the same compound?
Answer: 11 % of Cmp 1a and 0.667 % of Cmp 1a and 28 % of Cmp 1a

Question: What about the “Ca2+ signal (% of Cmp 1a)” value [2, 13] of the same compound?
Answer: 16 % of Cmp 1a and -6.33 % of Cmp 1a and 31 % of Cmp 1a

Question: What about the “Ca2+ signal (% of Cmp 1a)” value [2, 14] of the same compound?
Answer: 20 % of Cmp 1a and -7 % of Cmp 1a and 0.667 % of Cmp 1a

Question: And the “Ca2+ signal (% of Carbachol)” value [3]?
Answer: -14 % of Carbachol and -5 % of Carbachol and -4.33 % of Carbachol

Question: Which results are given for CC(C)c1ccc(-c2nc(CC(=O)NC(C)c3ccccc3)no2)s1 (centres unmarked) [Compound 1.41, CC(C)C1=CC=C(S1)C2=NC(CC(=O)NC(C)C=3C=CC=CC3)=NO2]?
Answer: Ca2+ signal (% of Cmp 1a) [1]: 24 % of Cmp 1a and 11 % of Cmp 1a and -0.667 % of Cmp 1a; Ca2+ signal (% of Cmp 1a) [2, 4]: 66 % of Cmp 1a and 76 % of Cmp 1a and 60 % of Cmp 1a; change in potency with larger substituents on the thiophene ring [2]: three-fold reduction to a complete loss of activity; EC50 [2]: 1580 nM; Emax [2]: 67 ± 4%; Ca2+ signal (% of Cmp 1a) [2, 5]: 69 % of Cmp 1a and 62 % of Cmp 1a and 57 % of Cmp 1a; Ca2+ signal (% of Cmp 1a) [2, 6]: 70 % of Cmp 1a and 71 % of Cmp 1a and 40 % of Cmp 1a; Ca2+ signal (% of Cmp 1a) [2, 7]: 56 % of Cmp 1a and 47 % of Cmp 1a and 25 % of Cmp 1a; Ca2+ signal (% of Cmp 1a) [2, 8]: 34 % of Cmp 1a and 27 % of Cmp 1a and 22 % of Cmp 1a; Ca2+ signal (% of Cmp 1a) [2, 9]: 15 % of Cmp 1a and 0.333 % of Cmp 1a and 5.33 % of Cmp 1a; Ca2+ signal (% of Cmp 1a) [2, 10]: 13 % of Cmp 1a and -9 % of Cmp 1a and 4.33 % of Cmp 1a; Ca2+ signal (% of Cmp 1a) [2, 11]: -1.33 % of Cmp 1a and -6.33 % of Cmp 1a and 3 % of Cmp 1a; Ca2+ signal (% of Cmp 1a) [2, 12]: -4.33 % of Cmp 1a and 0 % of Cmp 1a (2×); Ca2+ signal (% of Cmp 1a) [2, 13]: 0 % of Cmp 1a and -2.67 % of Cmp 1a and 0.333 % of Cmp 1a; Ca2+ signal (% of Cmp 1a) [2, 14]: -1.67 % of Cmp 1a and -4.33 % of Cmp 1a and -2.33 % of Cmp 1a; Ca2+ signal (% of Carbachol) [3]: -18 % of Carbachol and 8 % of Carbachol and -8 % of Carbachol
